Measured values: article PMC3934385, “Componential Profile and Amylase Inhibiting Activity of Phenolic Compounds from Calendula officinalis L. Leaves” (The Scientific World Journal, 2014)
Values after ≈ are worked out from the molar mass of the structure shown.

Target: T1, amylase from Aspergillus niger
T1 construct: gene aamA
Assay: starch hydrolysis, glucose oxidase/peroxidase coupled, A510 microplate
Format: biochemical
Settings: 2% starch, phosphate pH 5.0, preincubation 20 min 45°C, then 30 min 50°C
Excerpt: starch hydrolysis, glucose oxidase/peroxidase coupled, A510 microplate on amylase from Aspergillus niger

| Compound | IC50 [µg/mL] | IC50 (μg mL^-1) |
| --- | --- | --- |
| COc1cc(C(=O)OC[C@H]2OC(O)[C@H](O)[C@@H](O)[C@@H]2O)ccc1O (mixture of isomers) [compound 6, 6′-O-vanilloyl-β-D-glucopyranose] | 79.18 | – |
| C[C@H]1O[C@H](O[C@H]2[C@H](O)[C@@H](O)[C@@H](O[C@H]3[C@H](O)[C@@H](O)C(O)O[C@@H]3CO)O[C@@H]2CO)[C@H](O)[C@@H](O)[C@@H]1N[C@H]1C=C(CO)[C@@H](O)[C@H](O)[C@H]1O (stereo partly shown) [Acarbose, reference compound] | 9.54 ± 0.32 (≈ 14.8 µM) | – |
| O=C(O[C@@H]1O[C@H](CO)[C@@H](O)[C@H](O)[C@H]1O)c1ccc(O)cc1 [compound 1, 1′-O-p-hydroxybenzoyl-β-D-glucopyranose] | > 100 | – |
| O=C(OC[C@H]1OC(O)[C@H](O)[C@@H](O)[C@@H]1O)c1ccc(O)cc1 (stereo partly drawn) [compound 2, 6′-O-p-hydroxybenzoyl-β-D-glucopyranose] | > 100 | – |
| O=C(O[C@@H]1O[C@H](CO)[C@@H](O)[C@H](O)[C@H]1O)c1ccc(O)c(O)c1 [compound 3, 1′-O-protocatechuoyl-β-D-glucopyranose] | 62.46 (≈ 197 µM) | – |
| O=C(OC[C@H]1OC(O)[C@H](O)[C@@H](O)[C@@H]1O)c1ccc(O)c(O)c1 (stereo partly drawn) [compound 4, 6′-O-protocatechuoyl-β-D-glucopyranose] | 66.52 (≈ 210 µM) | – |
| COc1cc(C(=O)O[C@@H]2O[C@H](CO)[C@@H](O)[C@H](O)[C@H]2O)ccc1O [compound 5, 1′-O-vanilloyl-β-D-glucopyranose] | 73.69 (≈ 223 µM) | – |
| O=C(O)/C=C/c1ccc(O)c(O)c1 [compound 7, caffeic acid] | 2.53 (≈ 14 µM) | – |
| O=C(/C=C/c1ccc(O)c(O)c1)O[C@@H]1C[C@](O)(C(=O)O)C[C@@H](OC(=O)/C=C/c2ccc(O)c(O)c2)[C@H]1O [compound 9, 3,5-di-O-caffeoylquinic acid] | 25.63 (≈ 49.6 µM) | – |
| O=C(/C=C/c1ccc(O)c(O)c1)O[C@@H]1C[C@](OC(=O)/C=C/c2ccc(O)c(O)c2)(C(=O)O)C[C@@H](O)[C@H]1O [compound 10, 1,5-di-O-caffeoylquinic acid] | 37.15 (≈ 71.9 µM) | – |
| O=C(/C=C/c1ccc(O)c(O)c1)O[C@@H]1[C@H](O)C[C@@](O)(C(=O)O)C[C@H]1OC(=O)/C=C/c1ccc(O)c(O)c1 [compound 11, 4,5-di-O-caffeoylquinic acid] | 26.65 (≈ 51.6 µM) | – |
| O=c1ccc2ccc(O)cc2o1 [compound 12, umbelliferone] | > 100 | – |
| O=c1ccc2cc(O)c(O)cc2o1 [compound 13, aesculetin] | 1.02 (≈ 5.73 µM) | – |
| O=c1ccc2cc(O[C@@H]3O[C@H](CO)[C@@H](O)[C@H](O)[C@H]3O)c(O)cc2o1 [compound 14, aesculin] | > 100 | – |
| O=c1ccc2cc(O)c(O[C@@H]3O[C@H](CO)[C@@H](O)[C@H](O)[C@H]3O)cc2o1 [compound 15, cichoriin] | > 100 | – |
| COc1cc2ccc(=O)oc2cc1O [compound 16, scopoletin] | – | ~ 100 μg mL^−1 |
| O=c1c(O)c(-c2ccc(O)c(O)c2)oc2cc(O)cc(O)c12 [compound 17, quercetin] | 1.79 (≈ 5.92 µM) | – |
| O=c1c(O[C@@H]2O[C@H](CO)[C@@H](O)[C@H](O)[C@H]2O)c(-c2ccc(O)c(O)c2)oc2cc(O)cc(O)c12 [compound 18, isoquercitrin] | 15.45 (≈ 33.3 µM) | – |
| CC(=O)OC[C@H]1O[C@@H](Oc2c(-c3ccc(O)c(O)c3)oc3cc(O)cc(O)c3c2=O)[C@H](O)[C@@H](O)[C@@H]1O [compound 19, quercetin-3-O-(6′′-acetyl)-β-D-glucopyranoside] | 32.70 (≈ 64.6 µM) | – |
| C[C@@H]1O[C@@H](OC[C@H]2O[C@@H](Oc3c(-c4ccc(O)c(O)c4)oc4cc(O)cc(O)c4c3=O)[C@H](O)[C@@H](O)[C@@H]2O)[C@H](O)[C@H](O)[C@H]1O [compound 20, rutin] | 89.85 (≈ 147 µM) | – |
| COc1cc(-c2oc3cc(O)cc(O)c3c(=O)c2O)ccc1O [compound 21, isorhamnetin] | 2.64 (≈ 8.35 µM) | – |
| COc1cc(-c2oc3cc(O)cc(O)c3c(=O)c2O[C@@H]2O[C@H](CO)[C@@H](O)[C@H](O)[C@H]2O)ccc1O [compound 22, isorhamnetin-3-O-β-D-glucopyranoside] | 23.41 (≈ 48.9 µM) | – |
| COc1cc(-c2oc3cc(O)cc(O)c3c(=O)c2O[C@@H]2O[C@H](COC(C)=O)[C@@H](O)[C@H](O)[C@H]2O)ccc1O [compound 23, isorhamnetin-3-O-(6′′-acetyl)-β-D-glucopyranoside] | – | ~ 100 μg mL^−1 |
| COc1cc(-c2oc3cc(O)cc(O)c3c(=O)c2O[C@@H]2O[C@H](CO[C@@H]3O[C@@H](C)[C@H](O)[C@@H](O)[C@H]3O)[C@@H](O)[C@H](O)[C@H]2O)ccc1O [compound 24, narcissin] | > 100 | – |
| COc1cc(-c2oc3cc(O)cc(O)c3c(=O)c2O[C@@H]2O[C@H](CO[C@@H]3O[C@@H](C)[C@H](O)[C@@H](O)[C@H]3O)[C@@H](O)[C@H](O)[C@H]2O[C@@H]2O[C@@H](C)[C@H](O)[C@@H](O)[C@H]2O)ccc1O [compound 25, thyphaneoside] | > 100 | – |
